Assay results from PubChem BioAssay AID248 (DTP/NCI, 2004).
Toxic doses and inconclusive results are not listed. No stated cut-off is given here; in the data, active means T/C of 150% or more; inactive means T/C below 125%.

Test system: L1210 leukemia ip in BDF1 mice, survival T/C
Experiment: NCI In Vivo Anticancer Drug Screen. Data for tumor model L1210 Leukemia (intraperitoneal) in B6D2F1 (BDF1) mice
Conditions: endpoint: mean survival time, higher = longer survival
How it was run: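 Transplantable tumor model; survival measured in treated vs vehicle control mice. Value = treated/control.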

[1] = dose: 100.0 mg/kg/injection, schedule: Q01DX009 (ip), vehicle: Klucel (hydroxypropylcellulose) (HPC)
[2] = dose: 100.0 mg/kg/injection, schedule: Q04DX003 (ip), vehicle: Klucel (hydroxypropylcellulose) (HPC)
[3] = dose: 200.0 mg/kg/injection, schedule: Q04DX003 (ip), vehicle: Klucel (hydroxypropylcellulose) (HPC)
[4] = dose: 400.0 mg/kg/injection, schedule: Q04DX003 (ip), vehicle: Klucel (hydroxypropylcellulose) (HPC)
[5] = dose: 100.0 mg/kg/injection, schedule: Q04DX003 (ip), vehicle: saline with Tween-80
[6] = dose: 100.0 mg/kg/injection, schedule: Q04DX002 (ip), vehicle: Klucel (hydroxypropylcellulose) (HPC)
[7] = dose: 200.0 mg/kg/injection, schedule: Q04DX002 (ip), vehicle: Klucel (hydroxypropylcellulose) (HPC)
[8] = dose: 400.0 mg/kg/injection, schedule: Q04DX002 (ip), vehicle: Klucel (hydroxypropylcellulose) (HPC)
[9] = dose: 200.0 mg/kg/injection, schedule: Q01DX009 (ip), vehicle: Klucel (hydroxypropylcellulose) (HPC)
[10] = dose: 400.0 mg/kg/injection, schedule: Q01DX009 (ip), vehicle: Klucel (hydroxypropylcellulose) (HPC)
[11] = dose: 12.5 mg/kg/injection, schedule: Q04DX002 (ip), vehicle: Klucel (hydroxypropylcellulose) (HPC)
[12] = dose: 25.0 mg/kg/injection, schedule: Q04DX002 (ip), vehicle: Klucel (hydroxypropylcellulose) (HPC)
[13] = dose: 50.0 mg/kg/injection, schedule: Q04DX002 (ip), vehicle: Klucel (hydroxypropylcellulose) (HPC)

Measured: T/C

Cn1c(=O)c2ccccc2c2cc(Cl)ccc21
inactive: [1] 94 % of control | [2] 96 % of control | [3] 96 % of control | [4] 93 % of control

CN1CCN(C2CCCCc3ccccc32)CC1 (stereo not drawn)
inactive: [5] 95 % of control

NC(CCCC(N)C(=O)CCl)C(=O)O (stereo not drawn)
inactive: dose: 25.0 mg/kg/injection, schedule: Q04DX002 (ip), vehicle: saline 114 % of control | dose: 50.0 mg/kg/injection, schedule: Q04DX002 (ip), vehicle: saline 104 % of control | dose: 100.0 mg/kg/injection, schedule: Q04DX002 (ip), vehicle: saline 107 % of control

O=CC(O)C(O)C(O)C(O)CO (stereo not drawn)
inactive: dose: 100.0 mg/kg/injection, schedule: Q01DX009 (ip), vehicle: saline 98 % of control | dose: 200.0 mg/kg/injection, schedule: Q01DX009 (ip), vehicle: saline 96 % of control | dose: 400.0 mg/kg/injection, schedule: Q01DX009 (ip), vehicle: saline 107 % of control | dose: 800.0 mg/kg/injection, schedule: Q01DX009 (ip), vehicle: saline 98 % of control

O=[N+]([O-])/C=C/c1ccccc1Cl
inactive: dose: 5.0 mg/kg/injection, schedule: Q01DX009 (ip), vehicle: other 98 % of control | dose: 6.25 mg/kg/injection, schedule: Q01DX009 (ip), vehicle: saline with Tween-80 100 % of control | dose: 10.0 mg/kg/injection, schedule: Q01DX009 (ip), vehicle: other 110 % of control | dose: 12.5 mg/kg/injection, schedule: Q01DX009 (ip), vehicle: saline with Tween-80 95 % of control | dose: 15.0 mg/kg/injection, schedule: Q04DX003 (ip), vehicle: other 114 % of control | dose: 20.0 mg/kg/injection, schedule: Q01DX009 (ip), vehicle: other 100 % of control | dose: 25.0 mg/kg/injection, schedule: Q01DX009 (ip), vehicle: saline with Tween-80 101 % of control | dose: 30.0 mg/kg/injection, schedule: Q04DX003 (ip), vehicle: other 104 % of control | dose: 37.5 mg/kg/injection, schedule: Q01DX009 (sc), vehicle: olive oil, sesame oil, peanut oil 94 % of control | dose: 37.5 mg/kg/injection, schedule: Q04DX003 (ip), vehicle: Klucel (hydroxypropylcellulose) (HPC) 101 % of control | dose: 50.0 mg/kg/injection, schedule: Q01DX009 (ip), vehicle: saline with Tween-80 96 % of control | dose: 60.0 mg/kg/injection, schedule: Q04DX003 (ip), vehicle: other 108 % of control | dose: 75.0 mg/kg/injection, schedule: Q01DX001 (ip), vehicle: saline 92 % of control | dose: 75.0 mg/kg/injection, schedule: Q01DX009 (sc), vehicle: olive oil, sesame oil, peanut oil 94 % of control | dose: 75.0 mg/kg/injection, schedule: Q04DX003 (ip), vehicle: Klucel (hydroxypropylcellulose) (HPC) 90 % of control | dose: 150.0 mg/kg/injection, schedule: Q04DX003 (ip), vehicle: Klucel (hydroxypropylcellulose) (HPC) 90 % of control

O=C1NC(=O)c2ccc(Br)c3cccc1c23
inactive: [6] 96 % of control | [7] 96 % of control | [8] 93 % of control

COCc1c(C)c(C)cc(C)c1C
inactive: [1] 96 % of control | [9] 96 % of control | [10] 91 % of control

COc1c(Cl)cc2c(c1OC)N(C)C1N3C(=O)C4(C)SSC3(C(=O)N4C)C(O)C21O (stereo not drawn)
inactive: dose: 0.12 mg/kg/injection, schedule: Q01DX009 (ip), vehicle: Klucel (hydroxypropylcellulose) (HPC) 106 % of control | dose: 0.25 mg/kg/injection, schedule: Q01DX009 (ip), vehicle: Klucel (hydroxypropylcellulose) (HPC) 101 % of control | dose: 0.5 mg/kg/injection, schedule: Q01DX009 (ip), vehicle: Klucel (hydroxypropylcellulose) (HPC) 110 % of control | dose: 1.0 mg/kg/injection, schedule: Q01DX009 (ip), vehicle: Klucel (hydroxypropylcellulose) (HPC) 108 % of control

Nc1ccccc1C1OCCO1
inactive: dose: 50.0 mg/kg/injection, schedule: Q01DX001 (ip), vehicle: carboxymethylcellulose (CMC) 95 % of control | dose: 100.0 mg/kg/injection, schedule: Q01DX001 (ip), vehicle: carboxymethylcellulose (CMC) 95 % of control | dose: 200.0 mg/kg/injection, schedule: Q01DX001 (ip), vehicle: carboxymethylcellulose (CMC) 95 % of control | dose: 400.0 mg/kg/injection, schedule: Q01DX001 (ip), vehicle: carboxymethylcellulose (CMC) 101 % of control

c1ccc(C2CC([P+](c3ccccc3)(c3ccccc3)c3ccccc3)=NN2)cc1 (stereo not drawn)
inactive: dose: 3.12 mg/kg/injection, schedule: Q01DX009 (ip), vehicle: Klucel (hydroxypropylcellulose) (HPC) 103 % of control | dose: 6.25 mg/kg/injection, schedule: Q01DX009 (ip), vehicle: Klucel (hydroxypropylcellulose) (HPC) 120 % of control | dose: 6.25 mg/kg/injection, schedule: Q04DX003 (ip), vehicle: Klucel (hydroxypropylcellulose) (HPC) 110 % of control | dose: 12.5 mg/kg/injection, schedule: Q01DX002 (ip), vehicle: Klucel (hydroxypropylcellulose) (HPC) 114 % of control | dose: 12.5 mg/kg/injection, schedule: Q01DX009 (ip), vehicle: Klucel (hydroxypropylcellulose) (HPC) 92 % of control | dose: 12.5 mg/kg/injection, schedule: Q04DX003 (ip), vehicle: Klucel (hydroxypropylcellulose) (HPC) 108 % of control | dose: 25.0 mg/kg/injection, schedule: Q01DX001 (ip), vehicle: Klucel (hydroxypropylcellulose) (HPC) 104 % of control | dose: 25.0 mg/kg/injection, schedule: Q01DX002 (ip), vehicle: Klucel (hydroxypropylcellulose) (HPC) 104 % of control | dose: 25.0 mg/kg/injection, schedule: Q04DX003 (ip), vehicle: Klucel (hydroxypropylcellulose) (HPC) 108 % of control | dose: 50.0 mg/kg/injection, schedule: Q01DX001 (ip), vehicle: Klucel (hydroxypropylcellulose) (HPC) 97 % of control | dose: 50.0 mg/kg/injection, schedule: Q01DX002 (ip), vehicle: Klucel (hydroxypropylcellulose) (HPC) 97 % of control | dose: 50.0 mg/kg/injection, schedule: Q04DX003 (ip), vehicle: Klucel (hydroxypropylcellulose) (HPC) 97 % of control

CCCCNC(=S)NC(=O)c1ccc(Br)cc1
inactive: [6] 97 % of control | [7] 97 % of control | [8] 90 % of control

O=C1OC(c2cccc(Cl)c2)=N/C1=C\c1ccccc1O
inactive: [1] 94 % of control | [10] 94 % of control

Brc1ccc2[nH]cc(/C=N/Nc3nnc(N/N=C/c4c[nH]c5ccc(Br)cc45)c4ccccc34)c2c1
inactive: dose: 50.0 mg/kg/injection, schedule: Q01DX001 (ip), vehicle: saline 101 % of control

CC1CC(C)(C)N=C(C(Cc2ccc(Br)cc2)c2ccccc2)O1 (stereo not drawn)
inactive: [5] 97 % of control | dose: 200.0 mg/kg/injection, schedule: Q04DX003 (ip), vehicle: saline with Tween-80 92 % of control | dose: 400.0 mg/kg/injection, schedule: Q04DX003 (ip), vehicle: saline with Tween-80 95 % of control

N#C[CH2][Sn]([c]1ccccc1)([c]1ccccc1)[c]1ccccc1
inactive: dose: 12.5 mg/kg/injection, schedule: Q04DX002 (ip), vehicle: saline with Tween-80 100 % of control | dose: 25.0 mg/kg/injection, schedule: Q04DX002 (ip), vehicle: saline with Tween-80 96 % of control | dose: 50.0 mg/kg/injection, schedule: Q04DX002 (ip), vehicle: saline with Tween-80 93 % of control

C1CN=C2CCCN2C1
inactive: dose: 18.75 mg/kg/injection, schedule: Q01DX009 (ip), vehicle: saline 100 % of control | dose: 37.5 mg/kg/injection, schedule: Q01DX009 (ip), vehicle: saline 97 % of control

Cc1c2c(nn1-c1ccccn1)C(=O)C=C(Nc1ccccc1)C2=O
inactive: [11] 92 % of control | [12] 96 % of control | [13] 92 % of control | [8] 90 % of control

O=C(Nc1cccc2ccccc12)Oc1ccc(Cl)cc1Cc1ccccc1
inactive: [11] 123 % of control | [12] 105 % of control | [13] 94 % of control | [6] 92 % of control | [7] 89 % of control

CCOc1ccc(OCC)c2c1C(=O)c1ccccc1C2=O
inactive: [1] 97 % of control | [2] 95 % of control | [9] 100 % of control | [3] 100 % of control | [10] 97 % of control | [4] 97 % of control
